In patent US20250302815A1, “PROTEIN TYROSINE PHOSPHATASE TARGETING LIGANDS” (CALICO LIFE SCIENCES LLC, priority 2021, published 2025):

Legend:
[1] = biological target: T1, PTPN2 (HiBIT-PTPN2 in 293T.109 cells) (Homo sapiens, UniProt P17706); assay: HiBiT Degradation 293T.109 PTPN2 (Nano-Glo HiBiT Lytic Assay); assay type: cell-based; settings: 24.0 hours
T1 construct: expressed in transfected cells; host or cells: 293T.109 (293T WT from ATCC)
T1 sequence (P17706 1-415): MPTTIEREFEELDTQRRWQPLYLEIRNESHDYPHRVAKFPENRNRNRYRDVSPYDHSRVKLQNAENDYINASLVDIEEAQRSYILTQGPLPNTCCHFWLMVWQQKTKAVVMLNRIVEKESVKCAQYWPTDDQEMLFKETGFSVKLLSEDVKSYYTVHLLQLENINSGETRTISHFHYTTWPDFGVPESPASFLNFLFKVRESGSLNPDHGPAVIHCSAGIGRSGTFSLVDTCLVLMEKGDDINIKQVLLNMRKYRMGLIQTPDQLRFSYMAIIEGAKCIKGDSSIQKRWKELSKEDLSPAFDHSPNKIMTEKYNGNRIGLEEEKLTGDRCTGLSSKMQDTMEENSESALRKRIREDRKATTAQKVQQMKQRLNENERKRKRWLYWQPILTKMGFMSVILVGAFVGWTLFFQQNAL
How it was run: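 Degradation read-out: lytic HiBiT luminescence after 24 h treatment (37 °C, 5% CO2) of 5000 293T cells per well expressing HiBiT-fused PTPN2 from an N-terminal tag. Dosing was 11 points, half-log steps down from 10 μM, in duplicate; vehicle-treated and no-reagent wells served as controls.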

PTPN2 (B16F10.4 cells) = biological target: T2, PTPN2 (B16F10.4 cells) (Mus musculus, UniProt Q06180); assay: HiBiT Degradation B16F10.4 PTPN2; assay type: cell-based; settings: 24.0 hours
T2 construct: HiBiT; host or cells: B16F10.4
T2 sequence (Q06180 1-406): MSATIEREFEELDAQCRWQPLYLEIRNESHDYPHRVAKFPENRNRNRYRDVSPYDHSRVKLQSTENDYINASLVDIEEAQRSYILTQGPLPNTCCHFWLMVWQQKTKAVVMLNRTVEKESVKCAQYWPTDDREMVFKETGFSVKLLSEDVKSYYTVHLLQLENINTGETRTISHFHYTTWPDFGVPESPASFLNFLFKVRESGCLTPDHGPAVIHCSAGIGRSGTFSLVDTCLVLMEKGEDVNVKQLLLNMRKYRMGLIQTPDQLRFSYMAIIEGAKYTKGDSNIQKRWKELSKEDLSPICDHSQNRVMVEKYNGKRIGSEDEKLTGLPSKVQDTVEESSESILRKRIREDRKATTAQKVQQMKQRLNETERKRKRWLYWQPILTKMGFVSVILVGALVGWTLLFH

Row | SMILES | DC50 [1] [nM] | DC50 (PTPN2 (B16F10.4 cells)) [nM]
1 | CC1(C)C[C@@H](Nc2cccc(-c3sc(C(=O)O)c(OCC(=O)O)c3Cl)c2)CCN1S(=O)(=O)Cc1cccc(NC(=O)N2CCC(c3ccc4c5c(cccc35)C(=O)N4C3CCC(=O)NC3=O)CC2)c1F (stereo partly drawn) [Example 128, 3-(carboxymethoxy)-4-chloro-5-(3-(((4S)-1-((3-(4-(1-(2,6-dioxopiperidin-3-yl)-2-oxo-1,2-dihydrobenzo[cd]indol-6-yl)piperidine-1-carboxamido)-2-fluorobenzyl)sulfonyl)-2,2-dimethylpiperidin-4-yl)amino)phenyl)thiophene-2-carboxylic acid] | 50 to 200 | < 50
2 | O=C(O)COc1c(C(=O)O)sc(-c2cccc(NC3CCN(S(=O)(=O)Cc4cccc(NC(=O)CN5CCC(n6nc(C7CCC(=O)NC7=O)c7ccccc76)CC5)c4)CC3)c2)c1Cl (stereo not drawn) [Example 54] | ≥ 1000 | ≥ 1000
3 | Cn1c(=O)n(C2CCC(=O)NC2=O)c2ccc(C3CCN(C(=O)Nc4cccc(CS(=O)(=O)N5CCC(Nc6cccc(-c7sc(C(=O)O)c(OCC(=O)O)c7Cl)c6F)CC5)c4)CC3)cc21 (stereo not drawn) [Example 123, 3-(carboxymethoxy)-4-chloro-5-[3-[[1-[[3-[[4-[1-(2,6-dioxo-3-piperidyl)-3-methyl-2-oxo-benzimidazol-5-yl]piperidine-1-carbonyl]amino]phenyl]methylsulfonyl]-4-piperidyl]amino]-2-fluoro-phenyl]thiophene-2-carboxylic acid] | 50 to 200 | 50 to 200
4 | O=C(O)COc1c(C(=O)O)sc(-c2cccc(NC3CCN(S(=O)(=O)Cc4cccc(NC(=O)CCCCCCNC(=O)CNc5ccc6c(c5)CN(C5CCC(=O)NC5=O)C6=O)c4)CC3)c2)c1Cl (stereo not drawn) [Example 25, 3-(carboxymethoxy)-4-chloro-5-[3-[[1-[[3-[7-[[2-[[2-(2,6-dioxo-3-piperidyl)-1-oxo-isoindolin-5-yl]amino]acetyl]amino]heptanoylamino]phenyl]methylsulfonyl]-4-piperidyl]amino]phenyl]thiophene-2-carboxylic acid] | 200 to 1000 | 200 to 1000
5 | CC(C)(c1cccc(NC(=O)CCCCCCNC(=O)CNc2ccc3c(c2)CN(C2CCC(=O)NC2=O)C3=O)c1)S(=O)(=O)N1CCC(Nc2cccc(-c3sc(C(=O)O)c(OCC(=O)O)c3Cl)c2)CC1 (stereo not drawn) [Example 39, 3-(carboxymethoxy)-4-chloro-5-[3-[[1-[1-[3-[7-[[2-[[2-(2,6-dioxo-3-piperidyl)-1-oxo-isoindolin-5-yl]amino]acetyl]amino]heptanoylamino]phenyl]-1-methyl-ethyl]sulfonyl-4-piperidyl]amino]phenyl]thiophene-2-carboxylic acid] | 200 to 1000 | ≥ 1000
6 | Cn1c(=O)n(C2CCC(=O)NC2=O)c2ccc(C3CCN(C(=O)Nc4cccc(CS(=O)(=O)N5CC[C@H](Nc6cc(-c7sc(C(=O)O)c(OCC(=O)O)c7Cl)ccc6F)CC5(C)C)c4)CC3)cc21 (stereo partly drawn) [Example 132, 3-(carboxymethoxy)-4-chloro-5-[3-[[(4S)-1-[[3-[[4-[1-(2,6-dioxo-3-piperidyl)-3-methyl-2-oxo-benzimidazol-5-yl]piperidine-1-carbonyl]amino]phenyl]methylsulfonyl]-2,2-dimethyl-4-piperidyl]amino]-4-fluoro-phenyl]thiophene-2-carboxylic acid] | 200 to 1000 | 50 to 200
7 | Cn1c(=O)n(C2CCC(=O)NC2=O)c2ccc([C@H]3CC[C@H](C(=O)Nc4cccc(CS(=O)(=O)N5CC[C@H](Nc6cccc(-c7sc(C(=O)O)c(OCC(=O)O)c7Cl)c6)CC5(C)C)c4)CC3)cc21 (stereo partly drawn) [Example 138, 3-(carboxymethoxy)-4-chloro-5-(3-(((4S)-1-((3-((1r,4S)-4-(1-(2,6-dioxopiperidin-3-yl)-3-methyl-2-oxo-2,3-dihydro-1H-benzo[d]imidazol-5-yl)cyclohexane-1-carboxamido)benzyl)sulfonyl)-2,2-dimethylpiperidin-4-yl)amino)phenyl)thiophene-2-carboxylic acid] | < 50 | < 50
8 | CC(C)(c1cccc(NC(=O)CCCCCCNC(=O)CNc2cccc3c2CN(C2CCC(=O)NC2=O)C3=O)c1)S(=O)(=O)N1CCC(Nc2cccc(-c3sc(C(=O)O)c(OCC(=O)O)c3Cl)c2)CC1 (stereo not drawn) [Example 40, 3-(carboxymethoxy)-4-chloro-5-[3-[[1-[1-[3-[7-[[2-[[2-(2,6-dioxo-3-piperidyl)-1-oxo-isoindolin-4-yl]amino]acetyl]amino]heptanoylamino]phenyl]-1-methyl-ethyl]sulfonyl-4-piperidyl]amino]phenyl]thiophene-2-carboxylic acid] | 200 to 1000 | ≥ 1000
9 | Cn1c(=O)n(C2CCC(=O)NC2=O)c2ccc(C3CCN(CC(=O)Nc4cccc(CS(=O)(=O)N5CCC(Nc6cccc(-c7sc(C(=O)O)c(OCC(=O)O)c7Cl)c6)CC5(C)C)c4)CC3)cc21 [Example 69, 3-(carboxymethoxy)-4-chloro-5-[3-[[(4S)-1-[[3-[2-[4-[1-(2,6-dioxo-3-piperidyl)-3-methyl-2-oxo-benzimidazol-S-yl]-1-piperidyl]acetyl]amino]phenyl]methylsulfonyl]-2,2-dimethyl-4-piperidyl]amino]phenyl]thiophene-2-carboxylic acid] | < 50 | 50 to 200
10 | Cn1c(=O)n(C2CCC(=O)NC2=O)c2cccc(CCC(=O)Nc3cccc(CS(=O)(=O)N4CCC(Nc5cccc(-c6sc(C(=O)O)c(OCC(=O)O)c6Cl)c5)CC4)c3)c21 (stereo not drawn) [Example 53] | 50 to 200 | 200 to 1000

Further lines, results first:

Row | DC50 [1] [nM] | DC50 (PTPN2 (B16F10.4 cells)) [nM] | SMILES
11 | < 50 | 50 to 200 | Cn1c(=O)n(C2CCC(=O)NC2=O)c2ccc(Nc3ccc(C(=O)Nc4cccc(CS(=O)(=O)N5CC[C@H](Nc6cccc(-c7sc(C(=O)O)c(OCC(=O)O)c7Cl)c6)CC5(C)C)c4)cc3)cc21 (stereo partly drawn) [Example 144]
12 | 200 to 1000 | 200 to 1000 | CC1(C)C[C@@H](Nc2cccc(-c3sc(C(=O)O)c(OCC(=O)O)c3Cl)c2)CCN1S(=O)(=O)Cc1cccc(NC(=O)N2CCC(c3ccc4c(c3)c3cccnc3n4C3CCC(=O)NC3=O)CC2)c1 (stereo partly drawn) [Example 195, 3-(carboxymethoxy)-4-chloro-5-[3-[[(4S)-1-[[3-[[4-[9-(2,6-dioxo-3-piperidyl)pyrido[2,3-b]indol-6-yl]piperidine-1-carbonyl]amino]phenyl]methylsulfonyl]-2,2-dimethyl-4-piperidyl]amino]phenyl]thiophene-2-carboxylic acid]
13 | 50 to 200 | < 50 | O=C(O)COc1c(C(=O)O)sc(-c2cccc(N[C@@H]3CCN(S(=O)(=O)Cc4cccc(NC(=O)N5CCC(c6ccc7c8c(cccc68)C(=O)N7C6CCC(=O)NC6=O)CC5)c4)C4(CC4)C3)c2)c1Cl (stereo partly drawn) [Example 231, 3-(carboxymethoxy)-4-chloro-5-(3-(((7R)-4-((3-(4-(1-(2,6-dioxopiperidin-3-yl)-2-oxo-1,2-dihydrobenzo[cd]indol-6-yl)piperidine-1-carboxamido)benzyl)sulfonyl)-4-azaspiro[2.5]octan-7-yl)amino)phenyl)thiophene-2-carboxylic acid]
14 | 50 to 200 | < 50 | CC1(C)C[C@@H](Nc2cccc(-c3sc(C(=O)O)c(OCC(=O)O)c3Cl)c2)CCN1S(=O)(=O)Cc1cccc(NC(=O)NCCC2CCN(c3ccc4c5c(cccc35)C(=O)N4C3CCC(=O)NC3=O)CC2)c1 (stereo partly drawn) [Example 219, 3-(carboxymethoxy)-4-chloro-5-(3-(((4S)-1-((3-(3-(2-(1-(1-(2,6-dioxopiperidin-3-yl)-2-oxo-1,2-dihydrobenzo[cd]indol-6-yl)piperidin-4-yl)ethyl)ureido)benzyl)sulfonyl)-2,2-dimethylpiperidin-4-yl)amino)phenyl)thiophene-2-carboxylic acid]
15 | 50 to 200 | 50 to 200 | Cn1c(=O)n(C2CCC(=O)NC2=O)c2ccc(-c3ccc(CC(=O)Nc4cccc(CS(=O)(=O)N5CC[C@H](Nc6cccc(-c7sc(C(=O)O)c(OCC(=O)O)c7Cl)c6)CC5(C)C)c4)cc3F)cc21 (stereo partly drawn) [Example 178, 3-(carboxymethoxy)-4-chloro-5-(3-(((4S)-1-((3-(2-(4-(1-(2,6-dioxopiperidin-3-yl)-3-methyl-2-oxo-2,3-dihydro-1H-benzo[d]imidazol-5-yl)-3-fluorophenyl)acetamido)benzyl)sulfonyl)-2,2-dimethylpiperidin-4-yl)amino)phenyl)thiophene-2-carboxylic acid]
